Source: ChEMBL document CHEMBL3992552, “Mechanisms of action and structure-activity relationships of cytotoxic flavokawain derivatives” (Bioorg Med Chem, 2017)
Active and inactive are the calls of the source. The calls are words filed in the database; no cut-off is given here.

What was measured:
[1] = tested on: HCT-116; assay: Induction of apoptosis in human HCT116 cells harboring wild-type p53 assessed as increase in cleaved caspase3 at 2 times IC50 after 48 hrs by Hoechst staining based assay; assay type: functional, cell-based
[2] = Selectivity index, ratio of IC50 for human fibroblasts to IC50 for human HCT116 cells
[3] = tested on: NCI-H727; assay: Cytotoxicity against human NCI-H727 cells assessed as cell viability after 48 hrs by Hoechst 33342 staining based assay; assay type: functional; conditions: NCI-H727, 48 h
[4] = tested on: MDA-MB-231; assay: Cell cycle arrest in human MDA-MB-231 cells harboring p53 mutant assessed as accumulation at S phase at 10 uM measured after 48 hrs by Hoechst/BrdU staining based fluorescence assay (reference value: 42.2%); assay type: functional
[5] = tested on: HCT-116; assay: Cell cycle arrest in human HCT116 cells harboring wild-type p53 assessed as mitotic index at 25 uM measured after 48 hrs by Hoechst staining based fluorescence assay (reference value: 2.3); assay type: functional
[6] = tested on: PC-3; assay: Induction of apoptosis in human PC3 cells harboring p53 mutant assessed as upregulation of cyclinB1 after 48 hrs by Hoechst staining based assay; assay type: functional, cell-based
[7] = tested on: HCT-116; assay: Cell cycle arrest in human HCT116 cells assessed as accumulation at G1/S phase by Hoechst staining based fluorescence assay; assay type: functional
[8] = Selectivity index, ratio of IC50 for human fibroblasts to IC50 for human HaCaT cells
[9] = tested on: HaCaT; assay: Cytotoxicity against human HaCaT cells assessed as cell viability after 48 hrs by Hoechst 33342 staining based assay; assay type: functional
[10] = tested on: RL; assay: Cytotoxicity against human RL assessed as cell viability after 48 hrs by Hoechst 33342 staining based assay; assay type: functional
[11] = Selectivity index, ratio of IC50 for human fibroblasts to IC50 for human NCI-H727 cells
[12] = tested on: HaCaT; assay: Cell cycle arrest in human HaCaT cells harboring […] p53 assessed as mitotic index at 10 uM measured after 48 hrs by Hoechst staining based fluorescence assay (reference value: 2.6); assay type: functional
[13] = tested on: Huh-7; assay: Cell cycle arrest in human HuH7 cells assessed as accumulation at S phase at 10 uM measured after 48 hrs by Hoechst/BrdU staining based fluorescence assay (reference value: 44%); assay type: functional
[14] = tested on: MCF7; assay: Induction of apoptosis in human MCF7 cells harboring wild-type p53 assessed as upregulation of p21 measured after 48 hrs by Hoechst staining based fluorescence assay; assay type: functional, cell-based
[15] = tested on: MDA-MB-231; assay: Cytotoxicity against human MDA-MB-231 cells assessed as cell survival at 50 uM after 48 hrs by Hoechst 33342 staining based assay relative to control; assay type: functional; conditions: MDA-MB-231, 48 h, read-out: Survival
[16] = tested on: HCT-116; assay: Induction of apoptosis in human HCT116 cells harboring wild-type p53 assessed as increase in early apoptosis at 2 times IC50 after 48 hrs by YoPro/propidium iodide/Hoechst staining based assay; assay type: functional, cell-based
[17] = tested on: Huh-7; assay: Cytotoxicity against human HuH7 cells assessed as cell viability after 48 hrs by Hoechst 33342 staining based assay; assay type: functional; conditions: Huh-7, 48 h
[18] = tested on: PC-3; assay: Induction of apoptosis in human PC3 cells harboring p53 mutant assessed as increase in cleaved caspase3 at 2 times IC50 after 48 hrs by Hoechst staining based assay; assay type: functional, cell-based
[19] = tested on: Caco-2; assay: Cell cycle arrest in human Caco2 cells assessed as accumulation at M phase by Hoechst staining based fluorescence assay; assay type: functional
[20] = tested on: PC-3; assay: Cell cycle arrest in human PC3 cells harboring p53 mutant assessed as mitotic index at 10 uM measured after 48 hrs by Hoechst staining based fluorescence assay (reference value: 2.5); assay type: functional
[21] = tested on: Caco-2; assay: Cell cycle arrest in human Caco2 cells assessed as accumulation at S phase at 10 uM measured after 48 hrs by Hoechst/BrdU staining based fluorescence assay (reference value: […]); assay type: functional
[22] = tested on: MDA-MB-231; assay: Induction of apoptosis in human MDA-MB-231 cells harboring p53 mutant assessed as increase in early apoptosis at 2 times IC50 after 24 hrs by YoPro/propidium iodide/Hoechst staining based assay; assay type: functional, cell-based
[23] = tested on: Huh-7; assay: Cytotoxicity against human HuH7 cells assessed as cell survival at 50 uM after 48 hrs by Hoechst 33342 staining based assay relative to control; assay type: functional; conditions: Huh-7, 48 h, read-out: Survival
[24] = tested on: MDA-MB-231; assay: Induction of apoptosis in human MDA-MB-231 cells harboring p53 mutant assessed as increase in cleaved caspase3 at 2 times IC50 after 24 hrs by Hoechst staining based assay; assay type: functional, cell-based
[25] = tested on: Fibroblast; assay: Cytotoxicity against human fibroblasts assessed as cell viability after 48 hrs by Hoechst 33342 staining based assay
[26] = tested on: HCT-116; assay: Induction of apoptosis in human HCT116 cells harboring wild-type p53 assessed as upregulation of p21 measured after 48 hrs by Hoechst staining based fluorescence assay; assay type: functional, cell-based
[27] = tested on: NCI-H727; assay: Cell cycle arrest in human NCI-H727 cells harboring p53 mutant assessed as accumulation at S phase at 25 uM measured after 48 hrs by Hoechst/BrdU staining based fluorescence assay (reference value: 40.3%); assay type: functional
[28] = tested on: Caco-2; assay: Cytotoxicity against human Caco2 cells assessed as cell viability after 48 hrs by Hoechst 33342 staining based assay; assay type: functional; conditions: Caco-2, 48 h
[29] = tested on: MCF7; assay: Induction of apoptosis in human MCF7 cells harboring wild-type p53 assessed as increase in late apoptosis at 2 times IC50 after 24 hrs by YoPro/propidium iodide/Hoechst staining based assay; assay type: functional, cell-based
[30] = tested on: Huh-7; assay: Cell cycle arrest in human HuH7 cells assessed as mitotic index at 25 uM measured after 48 hrs by Hoechst staining based fluorescence assay (reference value: 2.2); assay type: functional
[31] = Selectivity index, ratio of IC50 for human fibroblasts to IC50 for human Caco2 cells
[32] = tested on: HCT-116; assay: Cell cycle arrest in human HCT116 cells harboring wild-type p53 assessed as accumulation at S phase at 25 uM measured after 48 hrs by Hoechst/BrdU staining based fluorescence assay (reference value: 68.4%); assay type: functional
[33] = tested on: NCI-H727; assay: Cell cycle arrest in human NCI-H727 cells harboring p53 mutant assessed as accumulation at S phase at 10 uM measured after 48 hrs by Hoechst/BrdU staining based fluorescence assay (reference value: 40.3%); assay type: functional
[34] = tested on: MDA-MB-231; assay: Cell cycle arrest in human MDA-MB-231 cells harboring p53 mutant assessed as mitotic index at 10 uM measured after 48 hrs by Hoechst staining based fluorescence assay (reference value: 2.1); assay type: functional
[35] = Cytotoxicity against human fibroblasts assessed as cell survival at 50 uM after 48 hrs by Hoechst 33342 staining based assay relative to control; parameters: species or system Fibroblast; conditions: read-out: Survival
[36] = tested on: PC-3; assay: Cytotoxicity against human PC3 cells assessed as cell viability after 48 hrs by Hoechst 33342 staining based assay; assay type: functional; conditions: PC-3, 48 h
[37] = tested on: HCT-116; assay: Cell cycle arrest in human HCT116 cells harboring wild-type p53 assessed as mitotic index at 10 uM measured after 48 hrs by Hoechst staining based fluorescence assay (reference value: 2.3); assay type: functional
[38] = tested on: Huh-7; assay: Cell cycle arrest in human HuH7 cells assessed as mitotic index at 10 uM measured after 48 hrs by Hoechst staining based fluorescence assay (reference value: 2.2); assay type: functional
[39] = Selectivity index, ratio of IC50 for human fibroblasts to IC50 for human RL cells

Compound | Activity [1] | Ratio IC50 [2] | IC50 [3] | Activity [4] | Activity_index [5] | Activity [6] | Activity [7] | Ratio IC50 [8] | IC50 [9] | IC50 [10] | Ratio IC50 [11] | Activity_index [12] | Activity [13] | Activity [14] | viability at 50 µM [15] | Activity [16] | IC50 [17] | Activity [18] | Activity [19] | Activity_index [20] | also measured
COc1cc(OC)c(C(=O)/C=C/c2ccc(Br)cc2)c(OC)c1 | Active | >8.1 | 11.3 µM | 42% | 0.6 | Active | Active | >5.6 | 9 µM | 8.3 µM | >4.4 | 19 | 46% | Active | 6% | Active | 13.9 µM | Active | Active | 2.5 | Activity [21]: 36%; Activity [22]: Active; viability at 50 µM [23]: 3%; Activity [24]: Active; IC50 [25]: > 20 µM; Activity [26]: Active; Activity [27]: 6%; IC50 [28]: 6.8 µM; Activity [29]: Active; Activity_index [30]: 0.1; Ratio IC50 [31]: >7.4; Activity [32]: 68%; Activity [33]: 39%; Activity_index [34]: 15; viability at 48 h, 50 µM [35]: 57%; IC50 [36]: 7.1 µM; Activity_index [37]: 2.8; Activity_index [38]: 10.4; Ratio IC50 [39]: >6
COc1cc(OC)c(C(=O)/C=C/c2ccccc2SC)c(OC)c1 | Active | 4.7 | 8.7 µM | 48% | 0.4 | Active | Active | 4.1 | 7.7 µM | 8.3 µM | 3.7 | 18.9 | 37% | Active | 36% | Active | 14.1 µM | Active | Active | 12.1 | Activity [21]: 36%; Activity [22]: Active; viability at 50 µM [23]: 4%; Activity [24]: Active; IC50 [25]: > 20 µM; Activity [26]: Active; Activity [27]: 3%; IC50 [28]: 8.8 µM; Activity [29]: Active; Activity_index [30]: 0.4; Ratio IC50 [31]: 3.6; Activity [32]: 0.5%; Activity [33]: 35%; Activity_index [34]: 18; viability at 48 h, 50 µM [35]: 74%; IC50 [36]: 7.6 µM; Activity_index [37]: 0.6; Activity_index [38]: 6.5; Ratio IC50 [39]: 3.8
COc1cc(O)c(C(=O)/C=C/c2ccccc2)c(OC)c1 [FLAVOKAWAIN B] | Active | 3.5 | 11.3 µM | 54% | 0.6 | Active | Active | 1.9 | 13.6 µM | 8.2 µM | 2.3 | 3.4 | 55% | Active | 19% | Active | 15.9 µM | Active | Active | 4.2 | Activity [21]: 42%; Activity [22]: Active; viability at 50 µM [23]: 10%; Activity [24]: Active; IC50 [25]: > 20 µM; Activity [26]: Active; Activity [27]: 7%; IC50 [28]: 9.9 µM; Activity [29]: Active; Activity_index [30]: 1.7; Ratio IC50 [31]: 2.7; Activity [32]: 28%; Activity [33]: 39%; Activity_index [34]: 5.2; viability at 48 h, 50 µM [35]: 32%; IC50 [36]: 9.1 µM; Activity_index [37]: 1.1; Activity_index [38]: 2.2; Ratio IC50 [39]: 3.2
COc1cccc(/C=C/C(=O)c2c(O)cc(OC)cc2OC)c1 | Active | 3.5 | 14.8 µM | 54% | 0.3 | Active | Active | 2.6 | 10.4 µM | 9 µM | 1.8 | 2.6 | 56% | Active | 11% | Active | 15 µM | Active | Active | 4.4 | Activity [21]: 31%; Activity [22]: Active; viability at 50 µM [23]: 13%; Activity [24]: Active; IC50 [25]: > 20 µM; Activity [26]: Active; Activity [27]: 1.4%; IC50 [28]: 11.2 µM; Activity [29]: Active; Activity_index [30]: 0.1; Ratio IC50 [31]: 2.4; Activity [32]: 37%; Activity [33]: 35%; Activity_index [34]: 4.2; viability at 48 h, 50 µM [35]: 44%; IC50 [36]: 7.3 µM; Activity_index [37]: 1.2; Activity_index [38]: 1.6; Ratio IC50 [39]: 3
COc1cccc(/C=C/C(=O)c2c(OC)cc(OC)cc2OC)c1 | Active | >11.6 | 8.2 µM | 43% | 1.2 | Active | Active | >9.4 | 5.3 µM | 5.9 µM | >6.1 | 17.5 | 40% | Active | 4% | Active | 8.9 µM | Active | Active | 27.6 | Activity [21]: 31%; Activity [22]: Active; viability at 50 µM [23]: 3%; Activity [24]: Active; IC50 [25]: > 20 µM; Activity [26]: Active; Activity [27]: 5.1%; IC50 [28]: 3.9 µM; Activity [29]: Active; Activity_index [30]: 1; Ratio IC50 [31]: >12.8; Activity [32]: 0.6%; Activity [33]: 37%; Activity_index [34]: 25; viability at 48 h, 50 µM [35]: 66%; IC50 [36]: 3.1 µM; Activity_index [37]: 4.5; Activity_index [38]: 12.3; Ratio IC50 [39]: >8.5
